Assay results from ChEMBL document CHEMBL1255236, “Hepatotoxicity observed in clinical trials of aplaviroc (GW873140)” (Antimicrob Agents Chemother, 2008).

Assays:
[1] = tested on: Human immunodeficiency virus 1; assay: Antiviral activity against Human immunodeficiency virus 1 infected in human assessed as log reduction in HIV-1 RNA level at 600 mg/kg, BID after 10 days; format: functional
[2] = AUC (0 to 24 hrs) in Human immunodeficiency virus 1 infected human at 600 mg/kg, BID; format: ADME, organism-based; design: time < 24 hr, dose 600 mg/kg; settings: plasma
[3] = AUC (0 to 24 hrs) in Human immunodeficiency virus 1 infected human at 400 mg/kg, BID; format: ADME, organism-based; design: time < 24 hr, dose 400 mg/kg; settings: plasma
Rattus norvegicus [4] = assay: Hepatotoxicity in rat assessed as increase in liver ALT level at >500 mg/kg/day; format: toxicity, organism-based; settings: in vivo
[5] = AUC (0 to 24 hrs) in Human immunodeficiency virus 1 infected human at 800 mg/kg, QD; format: ADME, organism-based; design: time < 24 hr, dose 800 mg/kg; settings: plasma
[6] = Half life in healthy human at 200 to 800 mg/kg, BID; format: ADME, organism-based; design: dose 200-800 mg/kg; settings: in vivo
Monkey = assay: Hepatotoxicity in monkey assessed as increase in liver ALT level at 2000 mg/kg/day; format: toxicity, organism-based; settings: cercopithecidae, in vivo
Rattus norvegicus [7] = assay: Hepatotoxicity in rat assessed as increase in liver bilirubin level at >500 mg/kg/day; format: toxicity, organism-based; settings: in vivo
[8] = AUC (0 to 24 hrs) in Human immunodeficiency virus 1 infected human at 200 mg/kg, BID; format: ADME, organism-based; design: time < 24 hr, dose 200 mg/kg; settings: plasma
[9] = AUC (0 to 24 hrs) in Human immunodeficiency virus 1 infected human at 800 mg/kg, BID; format: ADME, organism-based; design: time < 24 hr, dose 800 mg/kg; settings: plasma

AUC at 24 h [2]: 2100 ng·h/mL
AUC at 24 h [3]: 6060 ng·h/mL
AUC at 24 h [5]: 5840 ng·h/mL
half-life [6]: 3 h
AUC at 24 h [8]: 2010 ng·h/mL
AUC at 24 h [9]: 3410 ng·h/mL
Structure (SMILES): CCCCN1C(=O)[C@@H]([C@H](O)C2CCCCC2)NC(=O)C12CCN(Cc1ccc(Oc3ccc(C(=O)O)cc3)cc1)CC2 [APLAVIROC]
FC [1]: 1.66
Activity (Rattus norvegicus [4]): Toxic
Activity (Monkey): Non-toxic
Activity (Rattus norvegicus [7]): Toxic
